{
  "source": "patent US20180193289A1",
  "about": "“PROTOTYPICAL MOLECULAR PHARMACOLOGIC PROFILE OF FENDILINE AGAINST NEURODEGENERATIVE AND NEURODEVELOPMENTAL DISEASES” (priority 2016, published 2018)",
  "key": {"[1]": {"tested_on": "N-methyl-D-aspartic acid (NMDA) glutamatergic receptors", "test": "allosteric modulation of NMDA receptors", "details": "σ1 induced"}, "mice [2]": {"tested_on": "mice", "test": "PTZ clonic convulsions and fatal tonic crises in mice", "assay_type": "in vivo"}, "[3]": {"tested_on": "cholinergic muscarinic receptors", "test": "modulation of muscarinic receptors", "details": "σ1 induced"}, "sodium channels": {"tested_on": "sodium channels", "test": "allosteric modulation of sodium channels", "details": "σ1 induced"}, "mice [4]": {"tested_on": "mice", "test": "Pentylenetetrazole (PTZ) induced behavioral effects and seizures in mice", "assay_type": "in vivo", "details": "Fendiline 1.0 to 50 mg/kg (po), PTZ 10 to 70 mg/kg (ip)", "description": "In good agreement with the above receptors affinities and its molecular pharmacological properties, Fendiline, at 1.0 to 50 mg/kg, (po), in mice antagonized all the behavioral effects (in mice) corresponding to the symptoms, in humans, announcing the development of the neurodegenerative and neurodevelopmental diseases, i.e., anxiety, fear, social disconnection, agressivity, compulsive reactions, hypermotility, stereotypic activity, pain, lethargy and seizures, appearing at various degrees according to the amplitude of the Glutamate/GABA imbalance and to the brain regions (Basal Ganglia, Hippocampus, Cortex) affected by the above imbalance. Indeed, all the above behavioral effects (obtained, in mice, by administration of the GABAergic antagonist Pentylenetetrazole (PTZ) at 10 to 70 mg/kg, intraperitoneal (ip): with 10 to 40 mg/kg (ip) giving fear, anxiety, social disconnection, and agressivity, hypermotility and stereotypies—the latter being better expressed by previous (reserpine induced) hypersensibilisation of the brain DA receptors—and seizures (obtained at 50 to 70 mg/kg (ip) of PTZ), were antagonized by Fendiline at 1.0 to 50 mg/kg (po)."}, "mice [5]": {"tested_on": "mice", "test": "Maximal Electroshock tonic extension", "details": "mouse, in vivo"}, "GABA (A) receptors": {"tested_on": "GABA (A) receptors", "test": "allosteric modulation of GABA (A) receptors"}, "[6]": {"test": "neuropathic pain animal models", "assay_type": "in vivo", "details": "appropriate animal models"}, "sigma-1(σ1) receptor": {"molecular_target": "T1, sigma-1(σ1) receptor (Mus musculus, UniProt O55242)", "T1 construct": "from tissue; host or cells: whole animal (mice, oral administration)", "T1 sequence (O55242 whole entry)": "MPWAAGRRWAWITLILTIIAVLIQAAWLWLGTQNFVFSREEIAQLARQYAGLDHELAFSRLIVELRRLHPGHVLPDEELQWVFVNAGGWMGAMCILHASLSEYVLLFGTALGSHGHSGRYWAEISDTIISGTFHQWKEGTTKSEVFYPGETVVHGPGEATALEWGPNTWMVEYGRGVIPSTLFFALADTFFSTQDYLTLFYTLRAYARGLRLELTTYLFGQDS", "test": "sigma-1 agonistic/antagonistic activity in mice", "assay_type": "in vivo"}, "GABA (B) receptors": {"tested_on": "GABA (B) receptors", "test": "allosteric modulation of GABA (B) receptors"}},
  "data": [
    {"compound": "CC(NCCC(c1ccccc1)c1ccccc1)c1ccccc1", "note": "(stereo not shown) [Fendiline, 3,3-diphenyl-N-(1-phenylethyl) propan-1-amine]", "values": [
      {"measurement": "modulation of NMDA glutamatergic receptors", "setting": "[1]", "result": "negative allosteric modulations"},
      {"measurement": "protection against fatal tonic crises (tonic extensions), high doses of PTZ", "setting": "mice [2]; PTZ more than 80 mg/kg (ip), in mice", "result": "did not protect"},
      {"measurement": "protection against PTZ clonic convulsions", "setting": "mice [2]; mice", "result": "did not protect"},
      {"measurement": "modulation of cholinergic muscarinic receptors", "setting": "[3]", "result": "discreet negative modulation"},
      {"measurement": "modulation of sodium channels", "setting": "sodium channels", "result": "negative allosteric modulations"},
      {"measurement": "effect on PTZ induced behavioral effects (fear, anxiety, social disconnection, agressivity, hypermotility, stereotypies, seizures)", "setting": "mice [4]", "result": "antagonized"},
      {"measurement": "protection against fatal tonic crises (tonic extensions), Maximal Electrochock", "setting": "mice [5]", "result": "did not protect"},
      {"measurement": "modulation of GABA (A) receptors", "setting": "GABA (A) receptors", "result": "allosteric positive modulation"},
      {"measurement": "effect against neuropathic pain", "setting": "[6]", "result": "analgesic effect"},
      {"measurement": "sigma-1 activity at low doses", "setting": "sigma-1(σ1) receptor; 0,003 to 1.0 mg/kg per os (po), in mice", "result": "partial agonistic activity"},
      {"measurement": "sigma-1 activity at higher doses", "setting": "sigma-1(σ1) receptor; more than 1.0 mg/kg (po) in mice", "result": "antagonistic"},
      {"measurement": "sigma-1 intrinsic activity", "setting": "sigma-1(σ1) receptor; mouse, in vivo", "result": "low intrinsic activity"},
      {"measurement": "modulation of GABA (B) receptors", "setting": "GABA (B) receptors", "result": "allosteric positive modulation"}
    ]}
  ]
}
